Each structure is given as a SMILES string.

The values below come from ChEMBL document CHEMBL1140963, “Naphthoquinoidal [1,2,3]-triazole, a new structural moiety active against Trypanosoma cruzi” (Eur J Med Chem, 2008).

For the assay, the system named is Trypanosoma cruzi. Description: Antitrypanosomal activity against Trypanosoma cruzi Y trypomastigotes after 1 day. The format is functional, organism-based. To be noted: 24 h.
With `CC1(C)OC2=C(C(=O)C(=O)c3ccccc32)C1n1cc(COC2CCCCO2)nn1` (centres undefined), the IC50 (usually the point on the concentration scale where inhibition reaches its midpoint) stood at 257 µM.

`O=C(Cn1ccnc1[N+](=O)[O-])NCc1ccccc1` [BENZNIDAZOLE] gave an IC50 of 104 µM.

On to `CC(C)(O)c1cn(C2C3=C(OC2(C)C)c2ccccc2C(=O)C3=O)nn1` (centres undefined), for which the IC50 stood at 152 µM.

In the case of `CN(C)c1ccc(C(=C2C=CC(=[N+](C)C)C=C2)c2ccc(N(C)C)cc2)cc1` [GENTIAN VIOLET], it took 536 µM to reach half-maximal inhibition (IC50).

Take `CC1(C)OC2=C(C(=O)C(=O)c3ccccc32)C1n1cc(C2(O)CCCCC2)nn1` (centres undefined): the IC50 came to 57.8 µM.

`CC1(C)OC2=C(C(=O)C(=O)c3ccccc32)C1n1cc(-c2ccccc2)nn1` (centres undefined) registered an IC50 of 17.3 µM.

`CC1(C)OC2=C(C(=O)C(=O)c3ccccc32)C1n1cc(CO)nn1` (centres undefined) gave a concentration for half-maximal inhibition (IC50) of 348 µM.

`CC1(C)OC2=C(C(=O)C(=O)c3ccccc32)C1N=[N+]=[N-]` (centres undefined) gave an IC50 of 50.2 µM.

`CC(C)=CC1=C(O)C(=O)c2ccccc2C1=O`: the midpoint of inhibition, the IC50, lay at 1280 µM.
